3 molecules from ChEMBL document CHEMBL5625215, “Antiproliferative activity of meso-substituted BODIPY photocages: Effect of electrophiles vs singlet oxygen” (Eur J Med Chem, 2023) can be followed below.

A short description of data set [1]: Fluorescence property of compound in CH3CN assessed as fluorescence quantum yield by spectrofluorometric analysis. The format is physicochemical.
Data set [2] in a line: Induction of singlet oxygen production in CH3CN assessed as singlet oxygen quantum yield at 450 nm under photoirradiation with visible light and measured after 15 to 60 sec by DPBF based assay. The format is functional. The conditions noted are these: time 15-60 sec.
Data set [3] deals with MCF7. Put plainly: Antiproliferative activity against human MCF7 cells assessed as inhibition of cell growth incubated for 72 hrs under photoirradiation with 6 cool white lamps for 15 mins at 4,28 and 52 hrs after compound addition by MTT assay. Type of data set: functional, cell-based. Particulars: MCF7, light or radiation study. (In general: Tetrazolium dyes change colour on reduction, which living cells bring about.)

Data set [4] deals with NCI-H460. Briefly: Induction of cell death in human NCI-H460 cells assessed as membrane blebbing preincubated for 30 mins followed by light irradiation for 15 to 30 mins by Hoechst 33342 staining based confocal microscopic analysis. Particulars: time 45-60 min. Type of data set: functional.
A short description of data set [5]: Cytotoxicity against HEK293T cells assessed as inhibition of cell growth incubated for 72 hrs under photoirradiation with 6 cool white lamps for 15 mins at 4,28 and 52 hrs after compound addition by MTT assay. The conditions noted are these: human. Type of data set: toxicity, cell-based, HEK-293T.
The test system of data set [6] is NCI-H460. Put plainly: Antiproliferative activity against human NCI-H460 cells assessed as inhibition of cell growth incubated for 72 hrs under photoirradiation with 6 cool white lamps for 15 mins at 4,28 and 52 hrs after compound addition by MTT assay. Type of data set: functional, cell-based. The conditions noted are these: NCI-H460, light or radiation study.

The subject of data set [7] is NCI-H460. Briefly: Induction of cell death in human NCI-H460 cells assessed as dye bleaching preincubated for 30 mins followed by light irradiation for 15 to 30 mins by Hoechst 33342 staining based confocal microscopic analysis. The format is functional. Particulars: time 45-60 min.
Data set [8] can be described thus: Absorption property of compound in CH3CN assessed as maximal molar absorption coefficient by UV-vis spectrophotometer. The format is physicochemical.
Data set [9] in a line: Cytotoxicity against HEK293T cells assessed as inhibition of cell growth incubated for 72 hrs under dark condition by MTT assay. Type of data set: toxicity, cell-based, HEK-293T. The conditions noted are these: human.
Data set [10] can be described thus: Emission property of compound in CH3CN assessed as maximal wavelength by […]. Type of data set: physicochemical.
The nature of data set [11]: Cytotoxicity against human HaCaT cells assessed as inhibition of cell growth incubated for 72 hrs under photoirradiation with 6 cool white lamps for 15 mins at 4,28 and 52 hrs after compound addition by MTT assay. Type of data set: toxicity, cell-based.
The test system of data set [12] is HCT-116. Put plainly: Antiproliferative activity against human HCT-116 cells assessed as inhibition of cell growth incubated for 72 hrs under photoirradiation with 6 cool white lamps for 15 mins at 4,28 and 52 hrs after compound addition by MTT assay. The format is functional, cell-based. Particulars: HCT-116, light or radiation study.
Data set [13] can be described thus: Drug localization in lipid droplets of human NCI-H460 cells incubated for 30 mins by Hoechst 33342 staining based confocal microscopic analysis. The format is ADME, subcellular, Lipid droplet. Particulars: nci-h460, 0.5 h.
A short description of data set [14]: Drug uptake in HEK293T cells by fluorescence microscopic analysis. Particulars: human, hek-293t. The format is ADME, cell-based.
Data set [15] deals with NCI-H460. Put plainly: Induction of cell death in human NCI-H460 cells assessed as shrinkage of nuclear volume preincubated for 30 mins followed by light irradiation for 15 to 30 mins by Hoechst 33342 staining based confocal microscopic analysis. The format is functional. Particulars: time 45-60 min.
A short description of data set [16]: Induction of singlet oxygen production in CH3CN assessed as decrease in fluorescence intensity at 450 nm under photoirradiation with visible light and measured after 45 sec by DPBF based assay relative to control. Details: scale not given: the % may be the effect or the level left. The format is functional.
A short description of data set [17]: Induction of singlet oxygen production in CH3CN assessed as decrease in fluorescence intensity at 450 nm under photoirradiation with visible light and measured after 30 sec by DPBF based assay relative to control. Type of data set: functional. Details: scale not given: the % may be the effect or the level left.
Data set [18] in a line: Drug localization in nuclear membrane of human NCI-H460 cells incubated for 30 mins by Hoechst 33342 staining based confocal microscopic analysis. The format is ADME, cell membranes. The conditions noted are these: nci-h460, 0.5 h.
The subject of data set [19] is MCF7. Put plainly: Antiproliferative activity against human MCF7 cells assessed as inhibition of cell growth incubated for 72 hrs under dark condition by MTT assay. The format is functional, cell-based. The conditions noted are these: MCF7, 72 h.
Data set [20] deals with HEK-293T. Put plainly: Induction of apoptosis in HEK293T cells assessed as dye bleaching irradiated with visible light by Hoechst 33342 staining based confocal microscopic analysis. Type of data set: toxicity, cell-based. The conditions noted are these: human.
The test system of data set [21] is HCT-116. Put plainly: Antiproliferative activity against human HCT-116 cells assessed as inhibition of cell growth incubated for 72 hrs under dark condition by MTT assay. Particulars: HCT-116, 72 h. The format is functional, cell-based.
Data set [22] is described as follows: Cytotoxicity against human HaCaT cells assessed as inhibition of cell growth incubated for 72 hrs under dark condition by MTT assay. Type of data set: toxicity, cell-based.
Data set [23] in a line: Drug localization in cytoplasm of human NCI-H460 cells incubated for 30 mins by Hoechst 33342 staining based confocal microscopic analysis. The conditions noted are these: nci-h460, 0.5 h. Type of data set: ADME, subcellular.
Data set [24] in a line: Drug localization in endoplasmic reticulum of human NCI-H460 cells incubated for 30 mins by Hoechst 33342 staining based confocal microscopic analysis. The conditions noted are these: nci-h460, 0.5 h. The format is ADME, subcellular.
Data set [25] can be described thus: Induction of singlet oxygen production in CH3CN assessed as decrease in fluorescence intensity at 450 nm under photoirradiation with visible light and measured after 15 sec by DPBF based assay relative to control. The format is functional. Details: scale not given: the % may be the effect or the level left.
Data set [26] in a line: Drug localization in golgi body of human NCI-H460 cells incubated for 30 mins by Hoechst 33342 staining based confocal microscopic analysis. Type of data set: ADME, subcellular. The conditions noted are these: nci-h460, 0.5 h.
Data set [27] in a line: Absorption property of compound in CH3CN assessed as maximal wavelength by UV-vis spectrophotometer. Type of data set: physicochemical.
The subject of data set [28] is NCI-H460. Briefly: Antiproliferative activity against human NCI-H460 cells assessed as inhibition of cell growth incubated for 72 hrs under dark condition by MTT assay. Type of data set: functional, cell-based. Particulars: NCI-H460, 72 h.
The subject of data set [29] is HEK-293T. Briefly: Induction of apoptosis in HEK293T cells assessed as cell death irradiated with visible light by Hoechst 33342 staining based confocal microscopic analysis. Type of data set: toxicity. Particulars: human.
Data set [30] relates to NCI-H460. Put plainly: Induction of cell death in human NCI-H460 cells assessed as cell shrinkage preincubated for 30 mins followed by light irradiation for 15 to 30 mins by Hoechst 33342 staining based confocal microscopic analysis. Type of data set: functional. The conditions noted are these: time 45-60 min.
Data set [31] is described as follows: Fluorescence property of compound in CH3OH assessed as fluorescence quantum yield. Type of data set: physicochemical.
A short description of data set [32]: Induction of singlet oxygen production in CH3CN assessed as decrease in fluorescence intensity at 455 nm under photoirradiation with visible light and measured after 45 sec by DPBF based assay relative to control. The format is functional. Details: scale not given: the % may be the effect or the level left.
Data set [33] in a line: Induction of singlet oxygen production in CH3CN assessed as decrease in fluorescence intensity at 455 nm under photoirradiation with visible light and measured after 1 min by DPBF based assay relative to control. Details: scale not given: the % may be the effect or the level left. The format is functional.
A short description of data set [34]: Induction of singlet oxygen production in CH3CN assessed as decrease in fluorescence intensity at 455 nm under photoirradiation with visible light and measured after 15 sec by DPBF based assay relative to control. The format is functional. Details: scale not given: the % may be the effect or the level left.
Data set [35] in a line: Induction of singlet oxygen production in CH3CN assessed as singlet oxygen quantum yield. Type of data set: functional.
Data set [36] in a line: Induction of singlet oxygen production in CH3CN assessed as decrease in fluorescence intensity at 455 nm under photoirradiation with visible light and measured after 30 sec by DPBF based assay relative to control. The format is functional. Details: scale not given: the % may be the effect or the level left.

Active and inactive are the calls of the source. The rule behind the calls is not given here. Some results are limits rather than exact numbers.

In the case of `COc1cccc(COC(C)=O)c1OCC1=C2C(C)=C(Br)C(C)=[N+]2[B-](C)(C)n2c(C)c(Br)c(C)c21`, the Activity in [1] amounted to 0.034; in [2], 0.73; in [8], 59622 M⁻¹ cm⁻¹; in data set [10] it was 559 nm; in data set [16], 99.9%; in data set [17], 91.8%. The Activity result was “Toxic” in [20], 63% in [25], 530 nm in data set [27] and “Toxic” in data set [29]. Besides, the IC50 (as a rule, the concentration that gives 50% inhibition) in data set [3] was 150 nM; in data set [6], 230 nM; in [12], 190 nM; in data set [19], ≥ 100000 nM; in data set [21] it was ≥ 100000 nM; in data set [28], > 100000 nM. Also, the outcome in data set [4], in [7], in data set [15] and in data set [30] was Active. The IC50 at 72 h in [5] is 300 nM; in [9], ≥ 100000 nM; in [11], 300 nM; in data set [22] it was > 100000 nM. For the same molecule, the Drug uptake result in data set [13], in [14], in data set [18], in data set [23], in [24] and in data set [26] was “Active” throughout.

Consider `CCN(CC)c1ccc2c(-c3ccccc3C(=O)O)c3ccc(=[N+](CC)CC)cc-3oc2c1.[Cl-]` [RHODAMINE], for which, in data set [31], the Activity was determined as 0.66.

As to `C1=Cc2nc1c(-c1ccccc1)c1ccc([nH]1)c(-c1ccccc1)c1nc(c(-c3ccccc3)c3ccc([nH]3)c2-c2ccccc2)C=C1`, the Activity came to 84.2% in data set [32]; 95.1% in data set [33]; 43.3% in data set [34]; 0.5 in data set [35]; 63% in data set [36].
